Assay results published in ChEMBL document CHEMBL6115028, “An Amazing 30-Year Journey around the DABO Family: A Medicinal Chemistry Lesson on a Versatile Class of Non-nucleoside HIV-1 Reverse Transcriptase Inhibitors” (J Med Chem, 2025).

Legend:
[1] = test system: Human immunodeficiency virus 1; assay: Antiviral activity against wild type HIV-1 NL4-3 infected in human MT4 cells assessed as reduction in viral replication; assay type: functional, organism-based; settings: Human immunodeficiency virus 1, NL4-3, MT4
[2] = test system: Human immunodeficiency virus 1; assay: Antiviral activity against HIV-1 NL4-3 harboring infected Y181C mutant infected in human MT4 cells assessed as reduction in viral replication; assay type: functional, organism-based; settings: Human immunodeficiency virus 1, NL4-3, MT4
[3] = Cytotoxicity against African green monkey Vero cells assessed as reduction in cell viability incubated for 72 hrs by MTT assay; assay type: toxicity, cell-based; settings: chlorocebus sabaeus
[4] = test system: Human immunodeficiency virus 1; assay: Antiviral activity against HIV-1 harboring protease V82F mutant infected in human C8166 cells assessed as inhibition of viral replication measured for 72 hrs by spectrophotometric MTT assay; assay type: functional, organism-based; settings: Human immunodeficiency virus 1, C8166, 72 h
[5] = test system: Human immunodeficiency virus 1; assay: Antiviral activity against HIV-1 IIIB infected in human C8166 cells assessed as reduction in virus -induced cytopathic effect measured after 48 hrs by CellTiter-Glo Luminescent cell viability assay; assay type: functional, organism-based; settings: Human immunodeficiency virus 1, IIIB, C8166, 48 h
C8166 = assay: Cytotoxicity against human C8166 cells assessed as reduction in cell viability; assay type: functional
[6] = Selectivity index, ratio of CC50 for cytotoxicity against human MT2 cells to EC50 for antiviral activity against HIV-1 IIIB infected in human MT2 cells; assay type: toxicity, cell-based; settings: read-out: Ratio CC50/EC50
[7] = Cytotoxicity against african green monkey Vero cells assessed as reduction in cell viability measured after 72 hrs by MTT assay; assay type: toxicity, cell-based; settings: chlorocebus sabaeus
[8] = test system: Human immunodeficiency virus 1; assay: Antiviral activity against wild-type HIV-1 IIIB infected in human MT4 cells assessed as reduction in virus-induced cytopathic effect incubated for 5 days by MTT assay; assay type: functional, organism-based; settings: Human immunodeficiency virus 1, IIIB, MT4, 120 h
[9] = test system: Human immunodeficiency virus 1; assay: Antiviral activity against HIV-1 IIIB infected in human C8166 cells; assay type: functional, organism-based; settings: Human immunodeficiency virus 1, IIIB
[10] = test system: Human immunodeficiency virus 2; assay: Antiviral activity against HIV-2 ROD infected in human MT4 cells assessed as virus-induced cytopathic effect incubated for 5 days by MTT assay; assay type: functional, organism-based; settings: Human immunodeficiency virus 2, ROD, MT4, 120 h
MT4 [11] = assay: Cytotoxicity against human MT4 cells assessed as reduction in cell growth incubated for 3 days by CellTiter-Glo luminescent assay; assay type: functional; settings: MT4, 72 h, time 3 day
MT4 [12] = assay: Cytotoxicity against human MT4 cells assessed as reduction in cell growth after 5 days by MTT assay; assay type: functional; settings: MT4, 120 h, time 5 day
[13] = Selectivity index, ratio of CC50 for human MT4 cells to EC50 for antiviral activity against HIV1 infected in human MT4 cells; assay type: toxicity, cell-based; settings: read-out: Ratio CC50/EC50
MT4 [14] = assay: Cytotoxicity against human MT4 cells; assay type: functional
[15] = test system: Human immunodeficiency virus 1; assay: Antiviral activity against HIV-1 NL4-3 infected in human MT2 cells assessed as reduction in viral replication assessed as inhibition of viral growth incubated for 72 hrs by ELISA; assay type: functional, organism-based; settings: Human immunodeficiency virus 1, NL4-3, MT2, 72 h
MT4 [16] = assay: Cytotoxicity against human MT4 cells assessed as reduction in cell viability incubated for 4 days by MTT assay; assay type: functional; settings: MT4, 96 h, time 4 day
[17] = test system: Human immunodeficiency virus 1; assay: Antiviral activity against […] infected in human MT4 cells assessed as reduction in cytopathic effect measured after 4 days by MTT assay; assay type: functional, organism-based; settings: Human immunodeficiency virus 1, IIIB, MT4, 96 h
[18] = test system: Human immunodeficiency virus 1; assay: Antiviral activity against wild type HIV-1 IIIB harboring Y181C/K103N double mutant infected in human MT4 cells assessed as reduction in cytopathic effect measured after 4 days by MTT assay; assay type: functional, organism-based; settings: Human immunodeficiency virus 1, IIIB, MT4, 96 h
[19] = read-out: ED50 (the source's name)

## COC(=O)[C@H](C)NP(=O)(Oc1ccccc1)Oc1nc(N(C)C)nc(C(C)c2c(F)cccc2F)c1C (stereo partly specified)
[1]; read-out: EC50
  EC50: 0.007 µM
[2]
  EC50: 1.2 µM

## CSCSc1nc(Cc2c(F)cccc2Cl)cc(=O)[nH]1
[3]
  CC50 at 72 h: 55.3 µM
[4]
  EC50: 0.4 µM

## Cc1c(OP(=O)(N[C@@H](C)C(=O)OCc2ccccc2)Oc2ccccc2)nc(N(C)C)nc1C(C)c1c(F)cccc1F (stereo partly specified)
[1]; read-out: EC50
  EC50: 0.01 µM
[2]
  EC50: 1.1 µM

## CC(C)CCSc1nc(Cc2c(F)cccc2F)cc(=O)[nH]1
[5]
  EC50: 0.05 µM
C8166
  CC50: > 200 µM
[6]
  selectivity ratio: > 4000
[7]
  CC50 at 72 h: > 200 µM

## CCCCNc1nc(C(C)c2c(F)cccc2F)c(C)c(=O)[nH]1 (stereo unspecified)
[8]
  EC50: 0.04 µM

## CSCSc1nc(Cc2c(Cl)cccc2Cl)cc(=O)[nH]1
[3]
  CC50 at 72 h: 48.1 µM
[4]
  EC50: 1.3 µM

## Cc1cc(C)cc(OCCSc2nc(Cc3ccccc3)cc(=O)[nH]2)c1
[3]
  CC50 at 72 h: 72.9 µM
[4]
  EC50: 1.3 µM

## COc1ccc(C(=O)CSc2nc(Cc3ccccc3)c(C)c(=O)[nH]2)cc1
[9]
  EC50: 0.37 µM
[10]
  EC50: 0.42 µM
MT4 [11]
  CC50: > 290 µM

## CCCCNc1nc(Cc2c(F)cccc2F)c(C)c(=O)[nH]1
[8]
  EC50: 0.006 µM
MT4 [12]
  CC50: 70 µM

## Cc1c([C@H](C)c2c(F)cccc2F)nc(SC2CCCCC2)[nH]c1=O
[13]
  selectivity ratio: > 10000
[7]
  CC50 at 72 h: > 200 µM

## Cc1cc(C)cc(OCCSc2nc(Cc3c(F)cccc3F)cc(=O)[nH]2)c1
[3]
  CC50 at 72 h: 90 µM
[4]
  EC50: 11.2 µM

## Cc1c(Cc2c(F)cccc2F)nc(NC2CCCCC2)[nH]c1=O
[8]
  EC50: 0.005 µM
MT4 [12]
  CC50: 200 µM

## CC(C)c1c(Cc2ccccc2)nc(SCC(=O)c2ccc(F)cc2)[nH]c1=O
[9]
  EC50: 0.078 µM
[10]
  EC50: 32.2 µM
MT4 [11]
  CC50: 186 µM

## CC(=O)c1ccc(Cn2cc(CSc3nc(Cc4c(Cl)cccc4Cl)c(C)c(=O)[nH]3)nn2)cc1
MT4 [14]
  CC50: 32.5 µM

## CCSCSc1nc(=O)c(CC)c(Cc2cccc3ccccc23)[nH]1
[1]; [19]
  EC50: 2.7 µM

## CCCNc1nc(Cc2c(F)cccc2F)c(C)c(=O)[nH]1
[8]
  EC50: 0.02 µM
MT4 [12]
  CC50: > 200 µM

## CCc1c(Cc2ccccc2)nc(SC(C)CC)[nH]c1=O (stereo unspecified)
[15]
  EC50: 0.04 µM

## CSCSc1nc(Cc2c(F)cccc2F)cc(=O)[nH]1
[3]
  CC50 at 72 h: > 200 µM
[4]
  EC50: 0.8 µM

## CCc1c(Cc2cccc3ccccc23)n(CSC)c(=O)[nH]c1=O
[1]; [19]
  EC50: 0.37 µM

## CCC(C)Sc1nc(Cc2ccccc2)c(C(C)C)c(=O)[nH]1 (stereo unspecified)
[15]
  EC50: 0.1 µM

## Cc1c(Cc2ccccc2)nc(SCC(=O)c2ccc(F)cc2)[nH]c1=O
[9]
  EC50: 0.18 µM
[10]
  EC50: 275 µM
MT4 [11]
  CC50: 275 µM

## CSCSc1nc(Cc2ccccc2)cc(=O)[nH]1
[15]
  EC50: 20 µM

## CCc1c(Cc2cccc3ccccc23)[nH]c(SCSC)nc1=O
[1]; [19]
  EC50: 4.6 µM

## CCc1c(Cc2ccccc2)nc(SCC(=O)c2ccc(F)cc2)[nH]c1=O
[9]
  EC50: 0.07 µM
[10]
  EC50: 16.3 µM
MT4 [11]
  CC50: 240 µM

## Cc1c(OP(=O)(N[C@@H](C)C(=O)OC(C)(C)C)Oc2ccccc2)nc(N(C)C)nc1C(C)c1c(F)cccc1F (stereo partly specified)
[1]; read-out: EC50
  EC50: 0.008 µM
[2]
  EC50: 1 µM

## CCOCn1c(Cc2cccc3ccccc23)c(CC)c(=O)[nH]c1=O
[1]; [19]
  EC50: 0.05 µM

## Cc1c(O)nc(SCC(C)C)nc1C(C)c1c(F)cccc1F (stereo unspecified)
[13]
  selectivity ratio: 28600
[7]
  CC50 at 72 h: 200 µM

## CC(c1cc(O)nc(SC2CCCCC2)n1)c1c(F)cccc1F (stereo unspecified)
[13]
  selectivity ratio: > 6670
[7]
  CC50 at 72 h: > 200 µM

## CCCCSc1nc(O)c(C)c(C(C)c2c(F)cccc2F)n1 (stereo unspecified)
[13]
  selectivity ratio: 14000
[7]
  CC50 at 72 h: 112 µM

## CCC(C)Sc1nc(O)cc(C(C)c2c(F)cccc2F)n1 (stereo unspecified)
[13]
  selectivity ratio: > 6670
[7]
  CC50 at 72 h: > 200 µM

## Cc1c(O)nc(SC2CCCCC2)nc1C(C)c1c(F)cccc1F (stereo unspecified)
[13]
  selectivity ratio: > 33300
[7]
  CC50 at 72 h: > 200 µM

## CCC(C)Sc1nc(O)cc(Cc2c(F)cccc2F)n1 (stereo unspecified)
[5]
  EC50: 0.04 µM
C8166
  CC50: > 200 µM
[6]
  selectivity ratio: > 5000
[7]
  CC50 at 72 h: > 200 µM

## Cc1c(C(C)c2c(F)cccc2F)nc(N(C)C)[nH]c1=O (racemic)
MT4 [16]
  CC50: > 100 µM
[17]
  EC50: 0.7 µM
[18]
  EC50: 0.9 µM
